Test results reported in ChEMBL document CHEMBL1201862, “PubChem BioAssay data set” (2004).
Active and inactive are the calls of the source.

Experiments:
[1] = NIH-3T3 fibroblast cytotoxicity, dose response, cytotoxicity control, cell-based, fluorescence, Alamar Blue, secondary assay (AID 2327); assay type: functional;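 also: NIH-3T3 mouse fibroblasts cultured with fluconazole at 8 µg/mL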
[2] = fluconazole-exposed Candida albicans growth modulators – fluorescence, retest, confirmation (AID 2467); assay type: functional, cell-based
[3] = target: T1, Serine/threonine-protein phosphatase (Candida dubliniensis (strain CD36 / CBS 7987 / NCPF 3949 / NRRLY-17841) (Yeast), UniProt B9W6M3); test: blockers of CaCl2-induced CDRE-lacZ signaling – S. cerevisiae, luminescence, secondary, dose response (AID 2388); assay type: functional, cell-based;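 also: yeast reporter cells carrying a calcineurin-responsive lacZ construct stimulated with calcium chloride; luminescent beta-galactosidase reporter signal in whole cells rather than isolated phosphatase activity; potency for inhibition where a drop in reporter signal means calcineurin blockade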
T1 sequence (B9W6M3 whole entry): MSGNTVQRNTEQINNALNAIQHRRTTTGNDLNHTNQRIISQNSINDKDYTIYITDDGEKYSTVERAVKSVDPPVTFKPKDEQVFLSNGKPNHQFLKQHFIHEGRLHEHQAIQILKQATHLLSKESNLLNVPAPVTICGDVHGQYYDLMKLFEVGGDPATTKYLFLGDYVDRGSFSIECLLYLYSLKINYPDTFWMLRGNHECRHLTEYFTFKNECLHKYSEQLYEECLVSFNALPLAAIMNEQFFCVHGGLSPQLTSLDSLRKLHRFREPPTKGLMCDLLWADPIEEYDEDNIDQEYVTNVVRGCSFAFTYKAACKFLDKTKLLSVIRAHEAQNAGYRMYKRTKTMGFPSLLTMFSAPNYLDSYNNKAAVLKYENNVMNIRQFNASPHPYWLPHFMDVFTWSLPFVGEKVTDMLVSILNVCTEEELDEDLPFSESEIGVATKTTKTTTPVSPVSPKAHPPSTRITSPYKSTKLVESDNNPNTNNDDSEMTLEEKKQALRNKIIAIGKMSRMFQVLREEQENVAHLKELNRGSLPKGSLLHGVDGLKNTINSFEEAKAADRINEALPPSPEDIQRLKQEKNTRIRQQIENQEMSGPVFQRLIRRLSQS

[4] = target: Cyclin-dependent kinase 5/CDK5 activator 1 (Homo sapiens, UniProt Q00535); test: blockade of human CDK5 activity – biochemical, cherry-picked samples, set 2, dose response (AID 504545)
[5] = target: T2, Caspase-3 (Homo sapiens, UniProt P42574); assay type: functional;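 also: Dose-response selectivity test against caspase-3 for candidate inhibitors of sentrin-specific proteases (SENPs)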
T2 sequence (P42574 whole entry): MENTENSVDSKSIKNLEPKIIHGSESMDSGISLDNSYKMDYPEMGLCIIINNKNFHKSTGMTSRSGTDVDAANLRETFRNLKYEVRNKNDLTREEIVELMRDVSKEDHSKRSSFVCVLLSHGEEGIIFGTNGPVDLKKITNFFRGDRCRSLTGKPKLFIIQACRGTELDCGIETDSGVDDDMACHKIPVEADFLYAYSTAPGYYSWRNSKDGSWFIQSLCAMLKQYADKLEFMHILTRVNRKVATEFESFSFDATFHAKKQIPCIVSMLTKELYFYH

[6] = target: T3, Sentrin-specific protease 7 (Homo sapiens, UniProt Q9BQF6); assay type: functional;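 also: Luminescence-based dose-response confirmation of ultra-high-throughput screening hits, measuring inhibition of SENP7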
T3 sequence (Q9BQF6 whole entry): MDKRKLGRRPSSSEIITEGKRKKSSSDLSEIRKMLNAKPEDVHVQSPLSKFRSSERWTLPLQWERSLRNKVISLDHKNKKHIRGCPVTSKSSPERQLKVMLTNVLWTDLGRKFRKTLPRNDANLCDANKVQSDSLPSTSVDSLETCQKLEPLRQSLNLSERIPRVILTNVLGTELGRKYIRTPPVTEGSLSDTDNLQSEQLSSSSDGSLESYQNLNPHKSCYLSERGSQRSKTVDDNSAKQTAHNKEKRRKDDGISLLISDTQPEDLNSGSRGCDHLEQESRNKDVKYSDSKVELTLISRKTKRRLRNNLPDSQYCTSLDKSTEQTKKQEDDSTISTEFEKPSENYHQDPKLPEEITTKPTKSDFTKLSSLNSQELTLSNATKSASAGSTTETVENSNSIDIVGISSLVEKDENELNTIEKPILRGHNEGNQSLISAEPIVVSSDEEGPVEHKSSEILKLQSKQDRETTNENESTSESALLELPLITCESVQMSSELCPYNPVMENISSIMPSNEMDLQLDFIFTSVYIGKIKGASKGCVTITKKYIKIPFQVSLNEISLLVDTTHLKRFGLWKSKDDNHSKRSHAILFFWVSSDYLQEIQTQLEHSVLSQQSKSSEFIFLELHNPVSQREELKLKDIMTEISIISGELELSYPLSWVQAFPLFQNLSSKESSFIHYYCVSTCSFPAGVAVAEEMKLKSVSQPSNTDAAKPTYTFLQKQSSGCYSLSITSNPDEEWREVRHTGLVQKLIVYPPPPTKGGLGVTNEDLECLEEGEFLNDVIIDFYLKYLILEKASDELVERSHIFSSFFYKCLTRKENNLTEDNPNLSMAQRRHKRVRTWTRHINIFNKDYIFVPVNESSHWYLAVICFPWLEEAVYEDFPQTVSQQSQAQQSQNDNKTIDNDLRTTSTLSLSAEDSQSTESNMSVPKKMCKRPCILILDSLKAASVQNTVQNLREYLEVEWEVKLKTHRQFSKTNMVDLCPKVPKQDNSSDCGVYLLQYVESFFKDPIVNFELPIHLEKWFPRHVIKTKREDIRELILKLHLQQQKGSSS

[7] = target: T4, Sentrin-specific protease 6 (Homo sapiens, UniProt Q9GZR1); assay type: functional;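 also: Luminescence-based dose-response confirmatory assay of SENP6 inhibition, following up an ultra-high-throughput screen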
T4 sequence (Q9GZR1 whole entry): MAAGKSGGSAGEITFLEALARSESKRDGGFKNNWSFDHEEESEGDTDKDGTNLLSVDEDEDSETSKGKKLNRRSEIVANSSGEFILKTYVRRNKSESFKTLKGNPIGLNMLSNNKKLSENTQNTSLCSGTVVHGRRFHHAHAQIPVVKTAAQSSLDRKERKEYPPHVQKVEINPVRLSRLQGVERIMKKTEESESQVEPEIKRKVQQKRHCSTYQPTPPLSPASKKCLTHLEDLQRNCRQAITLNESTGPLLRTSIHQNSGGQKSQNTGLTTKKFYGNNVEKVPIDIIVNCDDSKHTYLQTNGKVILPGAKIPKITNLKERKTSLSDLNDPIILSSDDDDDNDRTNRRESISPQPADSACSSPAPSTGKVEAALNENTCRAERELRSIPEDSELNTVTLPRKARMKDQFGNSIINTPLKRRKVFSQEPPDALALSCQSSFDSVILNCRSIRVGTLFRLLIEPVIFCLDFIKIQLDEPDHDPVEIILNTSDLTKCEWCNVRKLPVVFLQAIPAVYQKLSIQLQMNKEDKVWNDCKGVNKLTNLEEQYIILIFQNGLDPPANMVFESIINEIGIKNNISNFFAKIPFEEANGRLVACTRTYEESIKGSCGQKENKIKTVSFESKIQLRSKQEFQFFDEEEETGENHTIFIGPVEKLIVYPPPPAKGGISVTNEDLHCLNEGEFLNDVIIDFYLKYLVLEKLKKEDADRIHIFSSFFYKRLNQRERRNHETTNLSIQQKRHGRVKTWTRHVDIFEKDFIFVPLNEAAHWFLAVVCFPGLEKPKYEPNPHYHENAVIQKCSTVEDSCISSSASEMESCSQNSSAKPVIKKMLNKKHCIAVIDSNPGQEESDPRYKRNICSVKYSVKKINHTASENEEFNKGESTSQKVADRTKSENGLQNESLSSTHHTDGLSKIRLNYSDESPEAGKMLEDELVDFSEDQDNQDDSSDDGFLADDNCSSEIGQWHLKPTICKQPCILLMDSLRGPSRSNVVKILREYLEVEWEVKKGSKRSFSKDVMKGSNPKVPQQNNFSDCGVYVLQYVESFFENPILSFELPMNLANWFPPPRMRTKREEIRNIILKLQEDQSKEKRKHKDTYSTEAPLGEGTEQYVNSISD

[8] = target: T5, Sentrin-specific protease 8 (Homo sapiens, UniProt Q96LD8); assay type: functional;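 also: luminescence read-out of SENP8 inhibition, dose-response confirmation following an ultra-high-throughput screen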
T5 sequence (Q96LD8 whole entry): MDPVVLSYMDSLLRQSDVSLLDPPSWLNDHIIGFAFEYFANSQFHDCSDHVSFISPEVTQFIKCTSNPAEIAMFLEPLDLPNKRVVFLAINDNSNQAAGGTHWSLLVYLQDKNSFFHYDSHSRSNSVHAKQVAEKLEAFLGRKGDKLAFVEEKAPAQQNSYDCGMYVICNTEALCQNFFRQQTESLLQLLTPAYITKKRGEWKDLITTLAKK

[9] = target: ATP-dependent molecular chaperone HSP82 (Candida albicans (strain WO-1) (Yeast), UniProt C4YTQ8); test: steroid-induced GRE reporter decrease in yeast – S. cerevisiae, luminescence, Hsp90 inhibitor project, dose response (AID 2400); assay type: functional, cell-based;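 also: beta-galactosidase luminescence from glucocorticoid response element reporter as proxy for Hsp90 function; inhibitor potency where signal loss means Hsp90 inhibition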
[10] = test system: Streptococcus sp. 'group A'; test: Streptococcus pyogenes SK(-)GAS viability under kanamycin – luminescence, BacTiterGlo, confirmation, counter-screen for streptokinase expression inhibitor project, dose response (AID 1900); assay type: functional, organism-based
[11] = target: T6, Streptokinase A (Streptococcus pyogenes serotype M1, UniProt P10520); test: viability-normalized secreted streptokinase activity reduction – plasminogen activation absorbance, OD405, dose response (AID 1914); assay type: functional, Streptococcus pyogenes M1 GAS;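 also: secreted streptokinase activity via plasminogen activation per viability signal from cell pellet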
T6 sequence (P10520 whole entry): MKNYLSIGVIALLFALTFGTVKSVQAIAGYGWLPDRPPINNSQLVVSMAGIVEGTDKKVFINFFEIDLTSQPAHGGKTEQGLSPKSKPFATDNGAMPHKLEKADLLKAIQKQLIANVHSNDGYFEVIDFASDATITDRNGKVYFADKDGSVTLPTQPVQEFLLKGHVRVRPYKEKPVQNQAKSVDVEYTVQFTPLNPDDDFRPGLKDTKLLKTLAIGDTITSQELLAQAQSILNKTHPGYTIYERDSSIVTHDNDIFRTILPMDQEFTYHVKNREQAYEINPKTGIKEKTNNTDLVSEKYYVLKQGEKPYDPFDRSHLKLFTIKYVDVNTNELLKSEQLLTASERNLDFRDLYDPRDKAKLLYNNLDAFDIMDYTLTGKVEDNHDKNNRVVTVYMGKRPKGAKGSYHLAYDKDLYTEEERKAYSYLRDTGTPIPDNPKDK

[12] = target: G-protein coupled receptor 55 (Homo sapiens, UniProt Q9Y2T6); test: inhibition of LPI-stimulated GPR55 beta-arrestin translocation – imaging, U2OS, beta-arrestin-GFP, LPI agonist, primary screen (AID 2013); assay type: functional;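 also: antagonist potency measured as reduced agonist-driven arrestin aggregation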
[13] = test system: Streptococcus; test: GAS UMAA2166 growth inhibition – luminescence, BacTiterGlo, counter-screen for streptokinase expression inhibitor project, dose response (AID 1915); assay type: functional, organism-based;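 also: potency for reduction of bacterial viability or growth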
[14] = test system: HEK293; test: EBV LMP1 TES2 canonical NF-kB signalling blockers – cell-based, HEK293, luciferase, cherry-pick, dose response (AID 588343); assay type: functional; details: Homo sapiens
[15] = blockers of bursicon-stimulated LGR2 cAMP reporter – cell-based, HEK293, CRE-luciferase reporter, cherry pick, set 2, dose response (AID 743343); assay type: functional;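 also: transfected cells were stimulated with diluted bursicon conditioned medium after compound addition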
[16] = blockade of melanocortin 4 receptor signaling – cell-based, plate reader, cherry pick, counter-screen for LGR2 antagonist project, dose response (AID 743444); assay type: functional;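 also: transfected HEK 293 cells stimulated with alpha-MSH peptide; potency of inhibitors of the alpha-MSH evoked signal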
[17] = test system: Vero; test: viability of Vero cells under compound – cytotoxicity control for flavivirus capping enzyme inhibitors (AID 588742); assay type: functional; details: Chlorocebus sabaeus

Chain of Cyclin-dependent kinase 5/CDK5 activator 1 (Q00535 whole entry): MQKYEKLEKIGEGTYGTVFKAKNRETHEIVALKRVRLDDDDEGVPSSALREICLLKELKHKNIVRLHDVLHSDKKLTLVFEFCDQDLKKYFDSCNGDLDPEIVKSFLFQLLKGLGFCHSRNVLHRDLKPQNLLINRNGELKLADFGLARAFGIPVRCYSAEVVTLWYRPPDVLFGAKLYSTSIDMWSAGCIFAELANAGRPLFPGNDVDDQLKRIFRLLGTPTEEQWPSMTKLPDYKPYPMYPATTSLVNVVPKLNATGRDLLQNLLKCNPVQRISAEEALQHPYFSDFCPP
Chain of Cyclin-dependent kinase 5/CDK5 activator 1 (Q15078 whole entry, further chain): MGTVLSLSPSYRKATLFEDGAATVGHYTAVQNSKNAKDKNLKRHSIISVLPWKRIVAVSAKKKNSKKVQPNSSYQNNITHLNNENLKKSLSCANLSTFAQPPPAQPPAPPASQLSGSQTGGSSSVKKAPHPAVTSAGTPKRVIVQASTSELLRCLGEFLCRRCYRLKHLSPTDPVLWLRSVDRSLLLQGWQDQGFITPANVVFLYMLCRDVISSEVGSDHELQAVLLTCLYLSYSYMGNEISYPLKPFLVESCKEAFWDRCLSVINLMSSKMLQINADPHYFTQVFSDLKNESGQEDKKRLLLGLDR
Chain of ATP-dependent molecular chaperone HSP82 (C4YTQ8 whole entry): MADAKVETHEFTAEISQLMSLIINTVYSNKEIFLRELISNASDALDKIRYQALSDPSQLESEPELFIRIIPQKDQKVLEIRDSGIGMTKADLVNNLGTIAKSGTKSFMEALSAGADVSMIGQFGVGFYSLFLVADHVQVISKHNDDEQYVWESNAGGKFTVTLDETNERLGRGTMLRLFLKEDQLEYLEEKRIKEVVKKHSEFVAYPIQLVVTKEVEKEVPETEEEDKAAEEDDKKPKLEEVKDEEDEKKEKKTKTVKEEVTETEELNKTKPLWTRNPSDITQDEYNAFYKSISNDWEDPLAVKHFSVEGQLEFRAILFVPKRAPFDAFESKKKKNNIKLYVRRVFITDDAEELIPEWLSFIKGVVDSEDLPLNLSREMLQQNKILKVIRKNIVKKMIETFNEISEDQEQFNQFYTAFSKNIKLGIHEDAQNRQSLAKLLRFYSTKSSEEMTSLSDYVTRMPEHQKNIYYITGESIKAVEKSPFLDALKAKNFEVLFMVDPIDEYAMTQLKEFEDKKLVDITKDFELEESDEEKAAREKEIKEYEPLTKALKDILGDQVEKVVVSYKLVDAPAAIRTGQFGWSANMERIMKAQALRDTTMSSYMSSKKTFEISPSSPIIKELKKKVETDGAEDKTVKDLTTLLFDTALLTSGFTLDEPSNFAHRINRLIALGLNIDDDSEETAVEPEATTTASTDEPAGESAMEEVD
Chain of G-protein coupled receptor 55 (Q9Y2T6 whole entry): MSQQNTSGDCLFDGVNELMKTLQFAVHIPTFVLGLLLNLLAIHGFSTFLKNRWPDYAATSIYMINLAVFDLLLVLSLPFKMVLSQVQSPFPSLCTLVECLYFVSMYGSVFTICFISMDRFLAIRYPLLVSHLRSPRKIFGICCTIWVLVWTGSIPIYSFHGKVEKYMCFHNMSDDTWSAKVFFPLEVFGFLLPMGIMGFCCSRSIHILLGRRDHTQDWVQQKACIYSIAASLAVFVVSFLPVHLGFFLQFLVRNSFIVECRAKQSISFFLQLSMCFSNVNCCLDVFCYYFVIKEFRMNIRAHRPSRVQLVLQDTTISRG

Structure (SMILES): CCNc1nc(N)nc(-c2cc(Cl)ccc2O)n1
- EC50 [1]: 40.2 µM (active)
- EC50 [2]: 0.53 µM (active)
- EC50 [3]: > 180 µM (inactive)
- AC50 [4]: 7.06 µM (active)
- IC50 [5]: 18.9 µM (active)
- IC50 [6]: 3.99 µM (active)
- IC50 [7]: 12 µM (active)
- IC50 [8]: 13.7 µM (active)
- EC50 [9]: 20.1 µM (active)

Structure (SMILES): COc1ccc(NC2=NCC(Cc3ccc(Br)cc3)S2)cc1 (stereo unspecified)
- EC50 [10]: 9.96 µM (active)
- EC50 [11]: > 150 µM (not active)
- IC50 [12]: 1.31 µM (active)
- EC50 [13]: > 150 µM (not active)
- AC50 [14]: 183 µM (active)

Structure (SMILES): Cc1cnc(NC(=O)c2ccc(OCC3CCCO3)cc2)s1 (stereo unspecified)
- AC50 [14]: 1.93 µM (active)
- AC50 [15]: 4.84 µM (active)
- AC50 [16]: 5.51 µM (active)

Structure (SMILES): CCOC(=O)c1cn2nc(N3CCCCC3)ccc2n1
- AC50 [14]: 2.8 µM (active)
- AC50 [15]: 2.62 µM (active)
- AC50 [16]: 5.1 µM (active)

Structure (SMILES): O=C1C(=Cc2ccccc2[N+](=O)[O-])Cc2ccccc21
- CC50 [17]: 20.9 µM (active)
